Measurements reported in article PMC11946194, “Rational Design, Synthesis, and Biological Evaluation of Novel Thiazole/Thiazolidinones Multitarget Anti-Human Immunodeficiency Virus Molecules” (Pharmaceuticals, 2025).
Where two headings read alike, the source gives them in different places.

Experiments:
[1] = biological target: T1, recombinant HIV-1 RT (Human immunodeficiency virus type 1 group M subtype B, UniProt P04585); assay: HIV-1 RT RDDP inhibitory activity (Roche colorimetric immunoassay kit); assay type: biochemical
T1 construct: recombinant HIV-1 RT; purchased Roche
Protocol: As described in our previous work, HIV-1 reverse transcriptase (RT) activity was measured using the Roche colorimetric immunoassay kit. DNA synthesis by RT was quantified after 2 h incubation at 37 °C. The reaction included PolyA:oligodT RNA template, recombinant HIV-1 RT, and various substrates, with biotin-DIG-labeled DNA detected via streptavidin-coated ELISA wells. Inhibitor activity was tested by pre-incubating RT with compounds before substrate addition. The absorbance at 405 nm was measured to calculate enzyme activity and IC50 values. […] The experiment was performed in triplicate. The data analysis for obtaining the IC50 values and standard deviation (SD)was performed using nonlinear regression analysis, specifically fitting the dose–response curves to a sigmoidal model (log(inhibitor) vs. response) using the software GraphPad Prism 10.

[2] = Cellular viability, CCK cell viability assay; assay type: cell-based; details: human, MRC-5 cells (normal fetal lung fibroblasts)
Protocol: For the evaluation of cytotoxicity, compounds 1–15 were tested in the human normal fetal lung fibroblast MRC-5 cell line using the CCK cell viability assay. Each substance was tested at three different concentrations: 0.1 μM, 1 μM, and 10 μM. […] However, since all viability percentages were above 50%, no CC50 value could be calculated.
The normal human fetal lung fibroblast MRC-5 cell line (SI , 7)was cultured under standard conditions. Compounds were tested at 10 μM, 1 μM, and 0.1 μM. Results are expressed as mean ± standard deviation (SD) from triplicate experiments.
The previously established human normal MRC‐5 (human fetal lung fibroblasts; RRID:CVCL_0440)
approved for vaccine production was obtained, stored and used in a routine manner (1,2) in the
Laboratory of Pharmacology, School of Pharmacy, Aristotle University of Thessaloniki, Greece
(Laboratory of Ioannis S. Vizirianakis, Associate Professor in Molecular Pharmacology and
Pharmacogenomics) (<25 passages was applied). […]
Cell line MRC-5 information
ID/Proper Citation: (RRID:CVCL_0440)
URL: https://web.expasy.org/cellosaurus/CVCL_0440

[3] = biological target: T2, HIV-1 RT-associated RNase H (Human immunodeficiency virus type 1 group M subtype B, UniProt P04585); assay: RT RNase H polymerase-independent cleavage assay; assay type: biochemical
T2 construct: quantification of RNase H activity of reverse transcriptase (RT) enzyme
Protocol: The HIV-1 RT-associated RNase H activity was measured following the protocol cited by the detection and quantification of RNase H activity of reverse transcriptase (RT) enzyme with a hybrid substrate formed by a fluorescein labeled RNA annealed with Dabcyl DNA. In this assay the reaction mixture containing tris–HCl, pH 7.8, MgCl2, dithiothreitol (DTT), KCl, hybrid RNA/DNA (5′-[…]-3′-fluorescein,5′-[…]-3′-Dabcyl), and RT were incubated for 1 h at 37 °C, the reaction was stopped by the addition of EDTA, and products were measured with a Victor 3 (Perkin PerkinElmer VICTOR X3 Multilabel Counter Microplate Reader, Cridersville, OH, USA ) at 490/528 nm. The experiment was performed in triplicate. IC50 values were determined through nonlinear regression analysis, where the dose–response curves were fitted to a sigmoidal model (log(inhibitor) vs. response) using GraphPad Prism 10 software.

[4] = biological target: T2, HIV-1 RT-associated RNase H; set-up: method as in PMID 25092689; details: cited from earlier work
[5] = system: HIV-1; details: cited from earlier work

Structure (SMILES) | IC50 [1] [µM] | inhibition at 4 µM [1] [%] | viability at 24 h, 10 µM [2] [%] | IC50 [3] [µM] | IC50 ([4]; reference inhibitor) [µM] | Inhibition of RNase H activity ([4]; selective) | Inhibition of viral replication [5]
O=C1CSC(c2ccc(F)cc2)N1c1cccc(S(=O)(=O)Nc2nccs2)c1 (stereo not shown) [Compound 1, 3-(2-(4-Fluorophenyl)-4-oxothiazolidin-3-yl)-N-(thiazol-2-yl)benzenesulfonamide] | 2.23 ± 0.15 | 68.3 | > 50 | 14.3 ± 1.3 |  |  | 
O=C1CSC(c2c(F)cccc2F)N1c1nc2cc(-c3ccccc3)c(-c3ccccc3)cc2s1 (stereo not shown) [Compound 14, 2-(2,6-Difluorophenyl)-3-(5,6-diphenylbenzo[d]thiazol-2-yl)thiazolidin-4-one] | > 4 | 7.9 | > 50 | > 50 |  |  | 
O=C1CSC(c2c(F)cccc2F)N1c1nc(-c2ccc(S(=O)(=O)N3CCOCC3)cc2)cs1 (stereo not shown) [Compound 8, 2-(2,6-Difluorophenyl)-3-(4-(4-(morpholinosulfonyl)phenyl)thiazol-2-yl)thiazolidin-4-one] | > 4 | 33 | > 50 | > 50 |  |  | 
COc1ccc(OC)c(C2SCC(=O)N2c2nc(-c3cccc(S(=O)(=O)N4CCCC4)c3)cs2)c1 (stereo not shown) [Compound 4, 2-(2,5-Dimethoxyphenyl)-3-(4-(3-(pyrrolidin-1-ylsulfonyl)phenyl)thiazol-2-yl)thiazolidin-4-one] | 0.58 ± 0.07 | 86.6 | > 50 | 1.47 ± 0.2 |  |  | 
Cc1ccnc2c1NC(=O)c1cccnc1N2C1CC1 [Nevirapine, reference compound] |  | 93.8 |  |  |  |  | 
N#Cc1ccc2nc(N3C(=O)CSC3c3c(F)cccc3F)sc2c1 (stereo not shown) [Compound 13, 2-(2-(2,6-Difluorophenyl)-4-oxothiazolidin-3-yl)benzo[d]thiazole-6-carbonitrile] | > 4 | 21.4 | 55 | 16.4 ± 1.7 |  |  | 
CCOC(=O)C(=O)CC(=O)/C=C/c1cccn1Cc1ccccc1Cl [RDS1759] |  |  |  |  | 7.3 ± 0.1 | low micromolar range | low micromolar range
O=C1CSC(c2c(F)cccc2F)N1c1nc(-c2ccc(F)cc2)cs1 (stereo not shown) [Compound 12, 2-(2,6-Difluorophenyl)-3-(4-(4-fluorophenyl)thiazol-2-yl)thiazolidin-4-one] | > 4 | 5.86 | > 50 | > 50 |  |  | 
O=C1CSC(c2c(F)cccc2F)N1c1nc(-c2cccc(S(=O)(=O)N3CCCC3)c2)cs1 (stereo not shown) [Compound 3, 2-(2,6-Difluorophenyl)-3-(4-(3-(pyrrolidin-1-ylsulfonyl)phenyl)thiazol-2-yl)thiazolidin-4-one] | > 4 | 24.3 | > 50 | > 50 |  |  | 
O=C1CSC(c2c(Cl)cccc2Cl)N1c1nc(-c2ccc(F)cc2)cs1 (stereo not shown) [Compound 10, 2-(2,6-Dichlorophenyl)-3-(4-(4-fluorophenyl)thiazol-2-yl)thiazolidin-4-one] | > 4 | 1.59 | > 50 | > 50 |  |  | 
O=C1CSC(c2ccc(F)cc2)N1c1nc(-c2ccc(S(=O)(=O)N3CCOCC3)cc2)cs1 (stereo not shown) [Compound 7, 2-(4-Fluorophenyl)-3-(4-(4-(morpholinosulfonyl)phenyl)thiazol-2-yl)thiazolidin-4-one] | > 4 | 12 | > 50 | > 50 |  |  | 
O=C1CSC(c2c(Cl)cccc2Cl)N1c1nc(-c2ccc(S(=O)(=O)N3CCOCC3)cc2)cs1 (stereo not shown) [Compound 9, 2-(2,6-Dichlorophenyl)-3-(4-(4-(morpholinosulfonyl)phenyl)thiazol-2-yl)thiazolidin-4-one] | > 4 | 2.48 | > 50 | 9.01 ± 0.1 |  |  | 
O=C1CSC(c2c(F)cccc2Cl)N1c1nc2ccc(C(F)(F)F)cc2s1 (stereo not shown) [Compound 11, 2-(2-Chloro-6-fluorophenyl)-3-(6-(trifluoromethyl)benzo[d]thiazol-2-yl)thiazolidin-4-one] | 0.32 ± 0.03 | 92.4 | > 50 | 25.4 ± 0.4 |  |  | 
O=C1CSC(c2c(Cl)cccc2Cl)N1c1nc2ccc(C(F)(F)F)cc2s1 (stereo not shown) [Compound 15, 2-(2,6-Dichlorophenyl)-3-(6-(trifluoromethyl)benzo[d]thiazol-2-yl)thiazolidin-4-one] | > 4 | 8.52 | 57.9 | > 50 |  |  | 
COc1ccc(OC)c(C2SCC(=O)N2c2nc(-c3ccc(S(=O)(=O)N4CCOCC4)cc3)cs2)c1 (stereo not shown) [Compound 6, 2-(2,5-Dimethoxyphenyl)-3-(4-(4-(morpholinosulfonyl)phenyl)thiazol-2-yl)thiazolidin-4-one] | 0.72 ± 0.06 | 81.3 | > 50 | 2.5 ± 0.3 |  |  | 
O=C1CSC(c2ccc(F)cc2)N1c1nc(-c2cccc(S(=O)(=O)N3CCCC3)c2)cs1 (stereo not shown) [Compound 2, 2-(4-Fluorophenyl)-3-(4-(3-(pyrrolidin-1-ylsulfonyl)phenyl)thiazol-2-yl)thiazolidin-4-one] | > 4 | 8.36 | > 50 | > 50 |  |  | 
O=C1CSC(c2ccccc2O)N1c1nc(-c2cccc(S(=O)(=O)N3CCCC3)c2)cs1 (stereo not shown) [Compound 5, 2-(2-Hydroxyphenyl)-3-(4-(3-(pyrrolidin-1-ylsulfonyl)phenyl)thiazol-2-yl)thiazolidin-4-one] | > 4 | 45.2 | > 50 | 18 ± 2.1 |  |  | 
